The results in this text go back to paper PMC10687260, “1,3-Diphenylureido hydroxamate as a promising scaffold for generation of potent antimalarial histone deacetylase inhibitors” (Scientific Reports, 2023).

One data set concerns the target T1, human HDAC1 (Homo sapiens, UniProt Q13547).
T1 construct: purchased ENZO Life Sciences AG (Lausen, CH)
In words: In vitro HDAC enzymatic assay, HDAC1. Particulars: mean ± SD. It is filed as biochemical. Here is the method: (§1) In vitro HDAC enzymatic assays. Recombinant human HDAC1 and HDAC6 were purchased from ENZO Life Sciences AG (Lausen, CH) whereas HDAC8 was produced as described before. In vitro testing of the inhibitors in an enzymatic assay was carried out as described in previous publications[32],[33]. For HDAC1 a fluorogenic peptide derived from p53 (Ac-RHKK(Acetyl)-AMC) was used. For HDAC6, the substrate (Abz-SRGGK(thio-TFA)FFRR-NH2) was used as described before.

Another data set addresses T2, human HDAC6 (Homo sapiens, UniProt Q9UBN7).
T2 construct: purchased ENZO Life Sciences AG (Lausen, CH)
T2 sequence (Q9UBN7 1-1215): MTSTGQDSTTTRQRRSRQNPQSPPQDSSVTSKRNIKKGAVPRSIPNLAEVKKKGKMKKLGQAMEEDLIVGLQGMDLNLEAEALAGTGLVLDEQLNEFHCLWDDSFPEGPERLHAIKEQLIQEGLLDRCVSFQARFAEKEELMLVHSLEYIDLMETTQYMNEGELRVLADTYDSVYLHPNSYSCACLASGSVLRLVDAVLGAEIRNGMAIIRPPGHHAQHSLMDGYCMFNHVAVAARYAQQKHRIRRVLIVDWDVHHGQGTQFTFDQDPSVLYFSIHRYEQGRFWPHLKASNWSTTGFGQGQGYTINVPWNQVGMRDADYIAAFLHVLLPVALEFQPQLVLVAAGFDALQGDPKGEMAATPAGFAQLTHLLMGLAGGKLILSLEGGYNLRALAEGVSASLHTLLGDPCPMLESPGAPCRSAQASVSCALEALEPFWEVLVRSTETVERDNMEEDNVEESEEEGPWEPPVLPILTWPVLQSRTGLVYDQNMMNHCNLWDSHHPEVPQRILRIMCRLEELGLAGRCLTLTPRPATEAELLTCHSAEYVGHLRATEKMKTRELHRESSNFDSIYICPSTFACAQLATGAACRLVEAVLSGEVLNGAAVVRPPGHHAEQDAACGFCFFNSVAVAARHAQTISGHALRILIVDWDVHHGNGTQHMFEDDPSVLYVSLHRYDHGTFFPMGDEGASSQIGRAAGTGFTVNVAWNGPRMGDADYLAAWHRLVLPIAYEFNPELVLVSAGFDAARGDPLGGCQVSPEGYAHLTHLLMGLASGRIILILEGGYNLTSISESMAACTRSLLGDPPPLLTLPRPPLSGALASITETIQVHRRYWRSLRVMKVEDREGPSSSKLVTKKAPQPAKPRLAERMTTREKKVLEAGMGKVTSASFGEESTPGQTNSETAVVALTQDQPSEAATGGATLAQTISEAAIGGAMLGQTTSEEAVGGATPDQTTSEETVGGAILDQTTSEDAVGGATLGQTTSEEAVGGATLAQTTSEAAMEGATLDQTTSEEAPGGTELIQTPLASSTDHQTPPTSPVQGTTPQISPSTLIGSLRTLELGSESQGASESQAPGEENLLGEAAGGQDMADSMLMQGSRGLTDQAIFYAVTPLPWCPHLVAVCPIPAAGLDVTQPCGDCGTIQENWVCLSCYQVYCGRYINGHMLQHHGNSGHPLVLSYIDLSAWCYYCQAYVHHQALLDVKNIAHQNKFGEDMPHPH
The data set is described as follows: In vitro HDAC enzymatic assay, HDAC6. It is filed as biochemical. Particulars: for IC50: mean ± SD; for HDAC1/6 SI: ratio HsHDAC1 IC50/HsHDAC6 IC50. As to the method:
as §1

The target of the next data set is T3, CYP1A2 (Homo sapiens, UniProt P05177).
T3 construct: 10 μM compound was incubated with human liver microsomes and selective marker substrates; from tissue; host or cells: human liver microsomes
T3 sequence (P05177 1-516): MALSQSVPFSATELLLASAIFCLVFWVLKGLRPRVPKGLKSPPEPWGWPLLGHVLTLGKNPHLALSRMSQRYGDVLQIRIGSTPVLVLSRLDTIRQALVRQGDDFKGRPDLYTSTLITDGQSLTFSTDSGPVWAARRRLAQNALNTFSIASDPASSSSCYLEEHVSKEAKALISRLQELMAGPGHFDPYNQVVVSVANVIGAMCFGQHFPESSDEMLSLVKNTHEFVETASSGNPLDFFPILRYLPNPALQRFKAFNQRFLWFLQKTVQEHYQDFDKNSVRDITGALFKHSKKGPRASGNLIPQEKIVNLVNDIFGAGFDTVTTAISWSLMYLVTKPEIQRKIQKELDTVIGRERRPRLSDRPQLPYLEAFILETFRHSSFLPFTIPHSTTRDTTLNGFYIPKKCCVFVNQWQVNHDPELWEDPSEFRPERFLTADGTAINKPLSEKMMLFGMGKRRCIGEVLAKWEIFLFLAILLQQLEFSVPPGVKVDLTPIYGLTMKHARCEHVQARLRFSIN
The data set is described as follows: CYP450 inhibition in human liver microsomes, 1A2. To be noted: 10 µM. The format is in vitro ADME. A general note: Liver microsomes are a subcellular fraction often used to study metabolism.

T1 sequence (Q13547 whole entry): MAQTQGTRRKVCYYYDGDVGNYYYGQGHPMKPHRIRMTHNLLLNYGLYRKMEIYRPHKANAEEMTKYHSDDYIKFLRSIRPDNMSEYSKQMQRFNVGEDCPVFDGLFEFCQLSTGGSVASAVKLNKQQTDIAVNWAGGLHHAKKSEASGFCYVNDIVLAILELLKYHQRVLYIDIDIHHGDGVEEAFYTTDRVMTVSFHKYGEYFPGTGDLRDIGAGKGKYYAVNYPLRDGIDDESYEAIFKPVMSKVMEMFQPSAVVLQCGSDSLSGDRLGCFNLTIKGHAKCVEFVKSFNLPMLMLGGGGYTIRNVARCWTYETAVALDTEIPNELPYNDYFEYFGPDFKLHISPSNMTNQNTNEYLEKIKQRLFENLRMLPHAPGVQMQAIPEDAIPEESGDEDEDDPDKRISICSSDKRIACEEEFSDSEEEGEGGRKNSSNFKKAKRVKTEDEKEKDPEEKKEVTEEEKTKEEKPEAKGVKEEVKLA

As a reminder, the IC50 is the concentration needed to halve the response being measured. A high value points to weaker potency in that assay. The melting point is the temperature, or range, at which the solid turns liquid. Regarding `O=C(Nc1ccccc1)Nc1ccc(C(=O)NO)cc1` [Compound 8a, N-hydroxy-4-(3-phenylureido)bezamide], the melting point was 304 °C (dec.). The IC50 on human HDAC1 is 5330 ± 366 nM. Moreover, at human HDAC6, the midpoint of inhibition, the IC50, lay at 8.5 ± 0.8 nM and the “HDAC1/6 SI” value is listed as 627. For the same compound, at CYP1A2, the “CYP450% inhibition @ 10 µM 1A2” value was determined as 48%.

On to `COc1ccc(NC(=O)Nc2ccc(/C=C/C(=O)NO)cc2)cc1` [Compound 6c, (E)-N-hydroxi-3-(4-(3-(4-methoxyphenyl)ureido)phenyl)acrylamide], for which the melting point was 210 °C (dec.). The compound also gave an IC50 against human HDAC1 of 1580 ± 62.2 nM. On human HDAC6, the IC50 worked out at 7.7 ± 0.9 nM and the “HDAC1/6 SI” value came to 206. For the same compound, the “CYP450% inhibition @ 10 µM 1A2” value at CYP1A2 worked out at 32%.

For `COc1ccc(NC(=O)Nc2ccc(C(=O)NO)cc2)cc1` [Compound 8c, N-hydroxy-4-(3–4(-methoxyphenyl)ureido)benzamide], the figures for the IC50 on human HDAC1 and against human HDAC6 were 6180 ± 231 nM and 15.9 ± 0.4 nM, respectively. The “CYP450% inhibition @ 10 µM 1A2” value at CYP1A2 is recorded as “* (Inhibition < 10%)”.

For the compound `O=C(Nc1ccc(Cl)cc1)Nc1ccc(C(=O)NO)cc1` [Compound 8b, 4-(3-(4-chlorophenyl)ureido)-N-hydroxybenzamide], the melting point is 357 °C (dec.). Further, the IC50 at human HDAC1 turned out to be 5240 ± 476 nM. Also, on human HDAC6, the IC50 worked out at 15 ± 0.4 nM and the “HDAC1/6 SI” value stood at 349. Besides, the “CYP450% inhibition @ 10 µM 1A2” value at CYP1A2 is 42%.

Compound `COc1ccc(NC(=O)Nc2ccc(CCC(=O)NO)cc2)cc1` [Compound 7c, N-hydroxy-3-(4-(3-(4-methoxyphenyl)ureido)phenyl)propanamide] showed a melting point of 202 to 204 °C. For the same compound, the IC50 against human HDAC1 is 3560 ± 185 nM. For the same compound, on human HDAC6, the midpoint of inhibition, the IC50, lay at 151 ± 11.1 nM and the “HDAC1/6 SI” value was determined as 23. Moreover, the “CYP450% inhibition @ 10 µM 1A2” value on CYP1A2 was 22%.

With `O=C(Nc1ccc(C(=O)NO)cc1)Nc1ccc([N+](=O)[O-])cc1` [Compound 8d, N-hydroxy-4-(3-(4-nitrophenyl)ureido)benzamide], the melting point is 312 °C (dec.). Further, half-maximal inhibition at human HDAC1 (IC50) required 3740 ± 232 nM. For the same compound, on human HDAC6, the concentration for half-maximal inhibition (IC50) amounted to 13.4 ± 0.5 nM and the “HDAC1/6 SI” value is 279. The “CYP450% inhibition @ 10 µM 1A2” value on CYP1A2 is reported as “* (Inhibition < 10%)”.
